Data published in patent US10494391B2, “Two-component anti-cancer composition” (KING FAHD UNIVERSITY OF PETROLEUM AND MINERALS, priority 2017, dated 2019).
“Also recorded” adds a separate entry of the source.

Key:
Assay type in all cases: cell-based
[1] = test system: A549 (human lung carcinoma) cell line; test: MTT assay for in vitro cytotoxicity, A549; conditions: for IC50: 24 h incubation with compound, three independent experiments, read-out: IC50 values against A549 cancer cell line; for activity against A549 cells, in words (relative to cisplatin / within the series): comparison of IC50 values
Procedure: (§1) The anticancer activity of complexes 1-5 was measured using a similar testing protocol reported earlier (M. Altaf et al., New J. Chem. 2015, 39, 377-385, incorporated herein by reference in its entirety) against a panel of representative human tumor cell lines, which included MCF7 (human breast cancer), HCT15 (human colon adenocarcinoma) and A549 (human lung carcinoma) cell lines. The cells were seeded at 3×10^3 cells/well in 100 μL DMEM containing 10% Fetal Bovine Serum (FBS) in 96-well tissue culture plate and incubated for 72 h at 37° C., 5% CO2 in air and 90% relative humidity in CO2 incubator. After incubation, 100 μL of 50, 25 and 12.5 μM solutions of cisplatin and complexes 1-5 prepared in Dulbecco's Modified Eagle's Medium (DMEM), were added to the cells and the cultures were incubated for 24 h. The medium of wells was discarded and 100 μL DMEM containing MTT (0.5 mg/mL) was added to the wells and incubated in CO2 incubator at 37° C. in dark for 4 h. After incubation, a purple colored formazan produced in the cells appeared as dark crystals in the bottom of the wells. The culture medium was discarded from each well carefully to prevent disruption of monolayer and 100 μL of dimethyl sulfoxide (DMSO) was added in each well. The solution in the wells was thoroughly mixed to dissolve the formazan crystals which produce a purple solution. The absorbance of the 96 well-plates was taken at 570 nm with Lab systems Multiskan EX ELISA reader against a reagent blank. The experimental results were presented as micro-mole concentration of 50% cell growth inhibition (IC50) of each compound. The MTT assay was performed in three independent experiments.
(§2) The synthesized gold(I)-phosphine complexes (1 and 2), gold(I)-dithiocarbamates (3-5) and cisplatin (standard classical anticancer drug) were tested for in vitro cytotoxicity against A549, MCF7 and HCT15 human cancer cell lines using MTT assay. The dose-dependent inhibition of cell proliferation was obtained by specific increase in concentration of tested compounds against fixed number of three human cancer cell lines. […] The highest activity of 4 might be attributed to the strong binding of dithiocarbamate sulfur to gold(I) that would prevent it to interact with plasma proteins in tissues, unlike cisplatin which was strongly bound to plasma proteins through sulfur atoms of thiols (S. Ahmad. Chem. Biodiv. 2010, 7, 543-566, incorporated herein by reference in its entirety).

[2] = test system: HCT15 (human colon adenocarcinoma) cell line; test: MTT assay for in vitro cytotoxicity, HCT15; conditions: for IC50: 24 h incubation with compound, three independent experiments, read-out: IC50 values against HCT15 cancer cell line; for antiproliferative potential for HCT15 cells, in words (relative to cisplatin / within the series): comparison of IC50 values
Procedure: as §1, §2

[3] = test system: MCF7 (human breast cancer) cell line; test: MTT assay for in vitro cytotoxicity, MCF7; conditions: for IC50: 24 h incubation with compound, three independent experiments, read-out: IC50 values against MCF7 cancer cell line; for antiproliferative potential for MCF7 cells, in words (relative to cisplatin / within the series): comparison of IC50 values
Procedure: as §1, §2

Compound | IC50 [1] | IC50 [2] | IC50 [3] | antiproliferative potential for HCT15 cells, in words (relative to cisplatin / within the series) [2] | antiproliferative potential for MCF7 cells, in words (relative to cisplatin / within the series) [3] | activity against A549 cells, in words (relative to cisplatin / within the series) [1]
[Au2(S2CN(CH7)2)2]n [Complex 5] | 29.2 ± 1.81 µM | 69.1 ± 3.35 µM | 76.3 ± 2.52 µM | – | – | –
NCC[P+]([Au-2][P+](CCN)(c1ccccc1)c1ccccc1)(c1ccccc1)c1ccccc1 [Complex 2, [Au(AEP)2]Cl] | – | – | – | comparable to cisplatin | about half with respect to cisplatin | –
[Au2(S2CN(C2H5)2)2]n [Complex 4] | 19.6 ± 0.85 µM | 38.9 ± 2.38 µM | 48.8 ± 1.96 µM | comparable to cisplatin; also recorded: most active among the series | about half with respect to cisplatin; also recorded: most active among the series | most active among the series
[Au2(S2CN(CH3)2)2]n [Complex 3] | 304 ± 5.9 µM | 257 ± 3.39 µM | 139 ± 4.51 µM | least effective | least effective | least effective
N.N.[Cl][Pt][Cl] [cisplatin, reference compound] | 42.2 ± 2.01 µM | 32 ± 2.12 µM | 23.2 ± 3.79 µM | – | – | –
